Starred links: 1 amine or outer side, 2 acyl side, 3 side chain; linkers in the order of their positions; H or OH if unused. Positions of bridges follow the written chain, without caps; N, C: chain ends. Non-standard residues stand in square brackets, D forms with d. Residues, ends and D or L forms follow the SMILES beside them. ξ: configuration not given here. Phe(3-Me) = Cc1cccc(C[C@H](N)C(=O)O)c1; γGlu = O=C(O)[C@H](CCC(=O)[*:2])N[*:1]; 2Nal = N[C@@H](Cc1ccc2ccccc2c1)C(=O)O; βAsp = O=C(O)[C@H](CC(=O)[*:2])N[*:1]; Pro(4ξ-F) = O=C(O)[C@@H]1CC(F)CN1; Ahp(2) = CCCCC[C@H](N)C(=O)O; NMeNle = CCCC[C@H](NC)C(=O)O; Tle = CC(C)(C)[C@H](N)C(=O)O; NHexGly = CCCCCCNCC(=O)O; Nle = CCCC[C@H](N)C(=O)O; Aun = NCCCCCCCCCCC(=O)O; Dab = NCC[C@H](N)C(=O)O; Dap = NC[C@H](N)C(=O)O; AEEA = NCCOCCOCC(=O)O
These compounds were tested against T1, mouse VISTA (mVISTA) (Mus musculus, UniProt Q9D659) (assay: Cell-Based Binding High-Content Assay For mVISTA (HC CBA mVISTA)). Conditions: cell-based binding high-content assay; read-out: HC CBA mVISTA IC50.
T1 construct: expressed in transfected cells; host or cells: Human embryonic kidney 293T cells
T1 sequence (Q9D659 33-308): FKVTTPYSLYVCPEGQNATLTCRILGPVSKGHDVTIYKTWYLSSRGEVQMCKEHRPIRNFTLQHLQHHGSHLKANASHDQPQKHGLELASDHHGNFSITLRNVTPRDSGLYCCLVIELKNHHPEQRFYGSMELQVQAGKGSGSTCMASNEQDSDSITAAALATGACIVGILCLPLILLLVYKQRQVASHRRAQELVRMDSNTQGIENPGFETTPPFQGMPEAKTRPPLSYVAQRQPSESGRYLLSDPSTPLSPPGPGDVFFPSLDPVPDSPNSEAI
How it was run: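 293T cells expressing mouse VISTA, with compounds added either after seeding ("no wash") or before seeding and then washed out after 1 h. Biotinylated peptide 2 nM for 30 min at room temperature, then detection with Alexa 647–streptavidin. After fixation with Hoechst stain, plates were high-content imaged; IC50 from four-parameter logistic fit.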

| Structure (SMILES) | IC50 [nM] |
| --- | --- |
| CCCCCCN1CC(=O)N[C@@H](Cc2ccc(O)cc2)C(=O)N[C@@H](CC(C)C)C(=O)N[C@@H](CC(N)=O)C(=O)N[C@@H](CCCNC(=N)N)C(=O)N(C)[C@@H](CCCC)C(=O)N[C@@H](CCCCC)C(=O)N2CCC[C@H]2C(=O)N[C@@H](C(C)(C)C)C(=O)N[C@@H](CO)C(=O)N[C@H](C(=O)N[C@@H](CCC(=O)N[C@@H](CCN)C(=O)NCCCCCCCCCCC(=O)O)C(=O)O)CSCC(=O)N[C@@H](Cc2ccccc2)C(=O)N[C@@H](Cc2ccc(O)cc2)C(=O)N[C@@H](CC(=O)O)C1=O [Example 2323] ({CH2CO}-FYD[NHexGly]YLNR[NMeNle][Ahp(2)]P[Tle]SC[γGlu][Dab][Aun]-OH; thioether N-14) | 33.9 |
| CCCCCCN1CC(=O)N[C@@H](Cc2ccc(O)cc2)C(=O)N[C@@H](CCCC)C(=O)N[C@@H](CC(N)=O)C(=O)N[C@@H](CCCNC(=N)N)C(=O)N(C)[C@@H](CCCC)C(=O)N[C@@H](CCCCC)C(=O)N2CCC[C@H]2C(=O)N[C@@H](C(C)(C)C)C(=O)N[C@@H](CO)C(=O)N[C@H](C(=O)NCC(=O)N[C@@H](CC(=O)NCCOCCOCC(=O)NCCCCCCCCCCC(=O)O)C(=O)O)CSCC(=O)N[C@@H](Cc2ccccc2)C(=O)N[C@@H](Cc2cccc(C)c2)C(=O)N[C@@H](CC(=O)O)C1=O [Example 2327] ({CH2CO}-F[Phe(3-Me)]D[NHexGly]Y[Nle]NR[NMeNle][Ahp(2)]P[Tle]SCG[βAsp][AEEA][Aun]-OH; thioether N-14) | 33.7 |

Further lines, results first:

| IC50 [nM] | Structure (SMILES) |
| --- | --- |
| 21.7 | CCCCCCN1CC(=O)N[C@@H](Cc2ccc(O)cc2)C(=O)N[C@@H](CCCC)C(=O)N[C@@H](CC(N)=O)C(=O)N[C@@H](CCCNC(=N)N)C(=O)N(C)[C@@H](CCCC)C(=O)N[C@@H](CCCCC)C(=O)N2CCC[C@H]2C(=O)N[C@@H](C(C)(C)C)C(=O)N[C@@H](CC(=O)O)C(=O)N[C@H](C(=O)N[C@@H](CO)C(=O)NCCOCCOCC(=O)NCCCCCCCCCCC(=O)O)CSCC(=O)N[C@@H](Cc2ccccc2)C(=O)N[C@@H](Cc2c[nH]c3ccccc23)C(=O)N[C@@H](CC(=O)O)C1=O [Example 2337] ({CH2CO}-FWD[NHexGly]Y[Nle]NR[NMeNle][Ahp(2)]P[Tle]DCS[AEEA][Aun]-OH; thioether N-14) |
| 52 | CCCCCCN1CC(=O)N[C@@H](Cc2ccc(O)cc2)C(=O)N[C@@H](CCCC)C(=O)N[C@@H](CC(N)=O)C(=O)N[C@@H](CCCNC(=N)N)C(=O)N(C)[C@@H](CCCC)C(=O)N[C@@H](CCCCC)C(=O)N2CCC[C@H]2C(=O)N[C@@H](C(C)(C)C)C(=O)N[C@@H](CC(=O)O)C(=O)N[C@H](C(=O)N[C@@H](CC(N)=O)C(=O)NCCOCCOCC(=O)NCCCCCCCCCCC(=O)O)CSCC(=O)N[C@@H](Cc2ccccc2)C(=O)N[C@@H](Cc2c[nH]c3ccccc23)C(=O)N[C@@H](CC(=O)O)C1=O [Example 2338] ({CH2CO}-FWD[NHexGly]Y[Nle]NR[NMeNle][Ahp(2)]P[Tle]DCN[AEEA][Aun]-OH; thioether N-14) |
| 26.1 | CCCCCCN1CC(=O)N[C@@H](Cc2ccc(O)cc2)C(=O)N[C@@H](CCCC)C(=O)N[C@@H](CC(N)=O)C(=O)N[C@@H](CCCNC(=N)N)C(=O)N(C)[C@@H](CCCC)C(=O)N[C@@H](CCCCC)C(=O)N2CCC[C@H]2C(=O)N[C@@H](C(C)(C)C)C(=O)N[C@@H](CC(=O)O)C(=O)N[C@H](C(=O)N[C@@H](CN)C(=O)NCCOCCOCC(=O)NCCCCCCCCCCC(=O)O)CSCC(=O)N[C@@H](Cc2ccccc2)C(=O)N[C@@H](Cc2c[nH]c3ccccc23)C(=O)N[C@@H](CC(=O)O)C1=O [Example 2339] ({CH2CO}-FWD[NHexGly]Y[Nle]NR[NMeNle][Ahp(2)]P[Tle]DC[Dap][AEEA][Aun]-OH; thioether N-14) |

Same assay, conditions: read-out: HC CBA mVISTA IC50

| Structure (SMILES) | IC50 [nM] |
| --- | --- |
| CCCCCCN1CC(=O)N[C@@H](Cc2ccc(O)cc2)C(=O)N[C@@H](CCCC)C(=O)N[C@@H](CC(N)=O)C(=O)N[C@@H](CCCNC(=N)N)C(=O)N[C@@H](CC(C)C)C(=O)N[C@@H](CCCCC)C(=O)N2CCC[C@H]2C(=O)N[C@@H](C(C)C)C(=O)N[C@@H](CC(=O)O)C(=O)N[C@H](C(=O)NCCOCCOCC(=O)N[C@@H](CC(=O)NCCOCCOCC(=O)NCCCCCCCCCCC(=O)O)C(=O)O)CSCC(=O)N[C@@H](Cc2cccc(C)c2)C(=O)N[C@@H](Cc2c[nH]c3ccccc23)C(=O)N[C@@H](CC(=O)O)C1=O [Example 2198] ({CH2CO}-[Phe(3-Me)]WD[NHexGly]Y[Nle]NRL[Ahp(2)]PVDC[AEEA][βAsp][AEEA][Aun]-OH; thioether N-14) | 15.2 |
| CCCCCCN1CC(=O)N[C@@H](Cc2ccc(O)cc2)C(=O)N[C@@H](CCCCC)C(=O)NCC(=O)N[C@@H](CCCNC(=N)N)C(=O)N[C@@H](CC(C)C)C(=O)N[C@@H](CCCCC)C(=O)N2CCC[C@H]2C(=O)N[C@@H](C(C)C)C(=O)N[C@@H](CO)C(=O)N[C@H](C(=O)NCCOCCOCC(=O)N[C@@H](CC(=O)NCCOCCOCC(=O)NCCCCCCCCCCC(=O)O)C(=O)O)CSCC(=O)N[C@@H](Cc2ccccc2)C(=O)N[C@@H](Cc2ccc(O)cc2)C(=O)N[C@@H](CC(=O)O)C1=O [Example 2199] ({CH2CO}-FYD[NHexGly]Y[Ahp(2)]GRL[Ahp(2)]PVSC[AEEA][βAsp][AEEA][Aun]-OH; thioether N-14) | 18.3 |
| CCCCCCN1CC(=O)N[C@@H](Cc2ccc(O)cc2)C(=O)N[C@@H](CCCC)C(=O)N[C@@H](CC(N)=O)C(=O)N[C@@H](CCCNC(=N)N)C(=O)N(C)[C@@H](CCCC)C(=O)N[C@@H](CCCCC)C(=O)N2CCC[C@H]2C(=O)N[C@@H](C(C)C)C(=O)N[C@@H](CC(=O)O)C(=O)N[C@H](C(=O)NCCOCCOCC(=O)N[C@@H](CC(=O)NCCOCCOCC(=O)NCCCCCCCCCCC(=O)O)C(=O)O)CSCC(=O)N[C@@H](Cc2ccc3ccccc3c2)C(=O)N[C@@H](Cc2c[nH]c3ccccc23)C(=O)N[C@@H](CC(=O)O)C1=O [Example 2200] ({CH2CO}-[2Nal]WD[NHexGly]Y[Nle]NR[NMeNle][Ahp(2)]PVDC[AEEA][βAsp][AEEA][Aun]-OH; thioether N-14) | 16.5 |
| CCCCCCN1CC(=O)N[C@@H](Cc2ccc(O)cc2)C(=O)N[C@@H](CC(C)C)C(=O)N[C@@H](CC(N)=O)C(=O)N[C@@H](CCCNC(=N)N)C(=O)N[C@@H](CC(C)C)C(=O)N[C@@H](CCCCC)C(=O)N2CCC[C@H]2C(=O)N[C@@H](C(C)C)C(=O)N[C@@H](C(C)C)C(=O)N[C@H](C(=O)NCCOCCOCC(=O)N[C@@H](CC(=O)NCCOCCOCC(=O)NCCCCCCCCCCC(=O)O)C(=O)O)CSCC(=O)N[C@@H](Cc2ccccc2)C(=O)N[C@@H](Cc2ccc(O)cc2)C(=O)N[C@@H](CC(=O)O)C1=O [Example 2201] ({CH2CO}-FYD[NHexGly]YLNRL[Ahp(2)]PVVC[AEEA][βAsp][AEEA][Aun]-OH; thioether N-14) | 20.9 |
| CCCCCCN1CC(=O)N[C@@H](Cc2ccc(O)cc2)C(=O)N[C@@H](CCCC)C(=O)N[C@@H](CC(N)=O)C(=O)N[C@@H](CCCNC(=N)N)C(=O)N(C)[C@@H](CCCC)C(=O)N[C@@H](CCCCC)C(=O)N2CCC[C@H]2C(=O)N[C@@H](C(C)C)C(=O)N[C@@H](CC(=O)O)C(=O)N[C@H](C(=O)NCCOCCOCC(=O)N[C@@H](CC(=O)NCCOCCOCC(=O)NCCCCCCCCCCC(=O)O)C(=O)O)CSCC(=O)N[C@@H](Cc2ccccc2)C(=O)N[C@@H](Cc2c[nH]c3ccccc23)C(=O)N[C@@H](CC(=O)O)C1=O [Example 2204] ({CH2CO}-FWD[NHexGly]Y[Nle]NR[NMeNle][Ahp(2)]PVDC[AEEA][βAsp][AEEA][Aun]-OH; thioether N-14) | 14.9 |
| CCCCCCN1CC(=O)N[C@@H](Cc2ccc(O)cc2)C(=O)N[C@@H](CC(C)C)C(=O)N[C@@H](CC(=O)O)C(=O)N[C@@H](CCCNC(=N)N)C(=O)N(C)[C@@H](CCCC)C(=O)N[C@@H](CCCCC)C(=O)N2CCC[C@H]2C(=O)N[C@@H](C(C)(C)C)C(=O)N[C@@H](CC(N)=O)C(=O)N[C@H](C(=O)NCCOCCOCC(=O)N[C@@H](CC(=O)NCCOCCOCC(=O)NCCCCCCCCCCC(=O)O)C(=O)O)CSCC(=O)N[C@@H](Cc2ccccc2)C(=O)N[C@@H](Cc2cccc(C)c2)C(=O)N[C@@H](CC(=O)O)C1=O [Example 2212] ({CH2CO}-F[Phe(3-Me)]D[NHexGly]YLDR[NMeNle][Ahp(2)]P[Tle]NC[AEEA][βAsp][AEEA][Aun]-OH; thioether N-14) | 34.9 |

The remaining lines, values ahead:

| IC50 [nM] | Structure (SMILES) |
| --- | --- |
| 28.4 | CCCCCCN1CC(=O)N[C@@H](Cc2ccc(O)cc2)C(=O)N[C@@H](CCCC)C(=O)N[C@@H](CC(N)=O)C(=O)N[C@@H](CCCNC(=N)N)C(=O)N(C)[C@@H](CCCC)C(=O)N[C@@H](CCCCC)C(=O)N2CC(F)C[C@H]2C(=O)N[C@@H](C(C)C)C(=O)N[C@@H](CO)C(=O)N[C@H](C(=O)N[C@@H](CC(=O)NCCOCCOCC(=O)NCCCCCCCCCCC(=O)O)C(=O)O)CSCC(=O)N[C@@H](Cc2ccccc2)C(=O)N[C@@H](Cc2c[nH]c3ccccc23)C(=O)N[C@@H](CC(=O)O)C1=O (stereo partly shown) [Example 2196] ({CH2CO}-FWD[NHexGly]Y[Nle]NR[NMeNle][Ahp(2)][Pro(4ξ-F)]VSC[βAsp][AEEA][Aun]-OH; thioether N-14) |
| 32.6 | CCCCCCN1CC(=O)N[C@@H](Cc2ccc(O)cc2)C(=O)N[C@@H](CCCC)C(=O)N[C@@H](CC(N)=O)C(=O)N[C@@H](CCCNC(=N)N)C(=O)N(C)[C@@H](CCCC)C(=O)N[C@@H](CCCCC)C(=O)N2CCC[C@H]2C(=O)N[C@@H](C(C)(C)C)C(=O)N[C@@H](CO)C(=O)N[C@H](C(=O)N[C@@H](CC(=O)NCCOCCOCC(=O)NCCCCCCCCCCC(=O)O)C(=O)O)CSCC(=O)N[C@@H](Cc2cccc(C)c2)C(=O)N[C@@H](Cc2c[nH]c3ccccc23)C(=O)N[C@@H](CC(=O)O)C1=O [Example 2197] ({CH2CO}-[Phe(3-Me)]WD[NHexGly]Y[Nle]NR[NMeNle][Ahp(2)]P[Tle]SC[βAsp][AEEA][Aun]-OH; thioether N-14) |
